Test results as given in patent US20120129811A1, “TRICYCLIC INHIBITORS OF PRO-MATRIX METALLOPROTEINASE ACTIVATION” (priority 2010, published 2012).
Structures can show the parent of a compound that is named as a salt.

Assays:
[1] = molecular target: T1, proMMP9(20-445;ΔFnII) (SEQ ID NO:6) (Homo sapiens, UniProt P14780, DEL216-390); assay: ThermoFluor binding assay with proMMP9(20-445;ΔFnII)
T1 construct: start methionine (N); made in house; host or cells: E. coli BL21(DE3) RIL
T1 sequence (P14780 with tags, fused parts or gaps DEL216-390): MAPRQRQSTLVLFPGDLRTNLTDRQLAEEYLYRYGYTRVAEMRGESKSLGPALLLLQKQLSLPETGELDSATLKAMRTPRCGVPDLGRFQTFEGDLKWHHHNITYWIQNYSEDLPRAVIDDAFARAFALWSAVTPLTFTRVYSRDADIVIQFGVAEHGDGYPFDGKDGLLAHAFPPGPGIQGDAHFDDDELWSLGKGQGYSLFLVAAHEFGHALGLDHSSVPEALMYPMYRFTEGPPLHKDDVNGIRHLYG
Outline: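 Protein thermal stability was measured with 2.8 μM proMMP9(20-445;ΔFnII) and 50 μM 1,8-ANS in 50 mM HEPES pH 7.0, 100 mM NaCl, 0.001% Tween-20, 2.5 mM MgCl2, 300 μM CaCl2, across serial compound dilutions. Samples were heated 40–90° C at 1° C/min with fluorescence read at 500 nm. Tm was fitted, and binding was derived from thermodynamic parameters obtained by DSC and ThermoFluor.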

[2] = molecular target: T2, proMMP9(67-444;ΔFnII) (SEQ ID NO:5) (Homo sapiens, UniProt P14780, DEL216-390); assay: ThermoFluor binding assay with proMMP9(67-444;ΔFnII)
T2 construct: start methionine (N); made in house; host or cells: E. coli BL21(DE3) RIL
T2 sequence (P14780 with tags, fused parts or gaps DEL216-390): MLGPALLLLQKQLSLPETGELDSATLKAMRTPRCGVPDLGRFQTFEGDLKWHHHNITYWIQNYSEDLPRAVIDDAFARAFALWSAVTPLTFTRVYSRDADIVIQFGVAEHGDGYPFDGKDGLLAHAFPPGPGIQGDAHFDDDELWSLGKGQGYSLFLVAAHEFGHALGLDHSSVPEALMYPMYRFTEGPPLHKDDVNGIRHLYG
Outline: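 Thermal shift of 3.5 μM proMMP9(67-444;ΔFnII), desalted beforehand, with 50 μM 1,8-ANS in 50 mM HEPES pH 7.0, 100 mM NaCl, 2.5 mM MgCl2, 300 μM CaCl2, 0.001% Tween-20. Heated 40–90 °C at 1 °C/min, fluorescence read at 500 nm; binding fitted from Tm shifts using DSC- and ThermoFluor-derived unfolding parameters.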

[3] = molecular target: T3, proMMP13(1-268) (SEQ ID NO:7) (Homo sapiens, UniProt P45452); assay: ThermoFluor binding assay with proMMP13(1-268)
T3 construct: 6xHis (C); made in house; host or cells: HEK293 (transient, secreted)
Procedure: The ThermoFluor® (TF) assay is a 384-well plate-based binding assay that measures thermal stability of proteins (Biomol Screen 2001, 6, 429-40; Biochemistry 2005, 44, 5258-66). The experiments were carried out using instruments available from Johnson & Johnson Pharmaceutical Research & Development, LLC. TF dye used in all experiments was […] (1,8-ANS) (Invitrogen: A-47).
Compounds were arranged in a pre-dispensed plate (Greiner Bio-one: 781280), wherein compounds were serially diluted in 100% DMSO across 11 columns within a series. Columns 12 and 24 were used as DMSO reference and contained no compound. For multiple compound concentration-response experiments, the compound aliquots (50 nL) were robotically predispensed directly into black 384-well polypropylene PCR microplates (Abgene: TF-0384/k) using a Cartesian Hummingbird liquid handler (DigiLab, Holliston, Mass.). Following compound dispense, protein and dye solutions were added to achieve the final assay volume of 3 μL. The assay solutions were overlayed with 1 μL of silicone oil (Fluka, type DC 200: 85411) to prevent evaporation.
Assay plates were robotically loaded onto a thermostatically controlled PCR-type thermal block and then heated from 40 to 90° C. at a ramp-rate of 1° C./min for all experiments. Fluorescence was measured by continuous illumination with UV light (Hamamatsu LC6) supplied via fiber optics and filtered through a band-pass filter (380-400 nm; >60D cutoff). Fluorescence emission of the entire 384-well plate was detected by measuring light intensity using a CCD camera (Sensys, Roper Scientific) filtered to detect 500±25 nm, resulting in simultaneous and independent readings of all 384 wells. A single image with 20-sec exposure time was collected at each temperature, and the sum of the pixel intensity in a given area of the assay plate was recorded vs temperature and fit to standard equations to yield the Tm (J Biomol Screen 2001, 6, 429-40).
Thermodynamic parameters necessary for fitting compound binding for each proMMP were estimated by differential scanning calorimetry (DSC) and from ThermoFluor® data. The heat capacity of unfolding for each protein was estimated from the molecular weight and from ThermoFluor® dosing data.
ThermoFluor® with proMMP13(1-268) (SEQ ID NO: 7)
The proMMP13(1-268) (SEQ ID NO:7) protein sample preparations included a desalting buffer exchange step via a PD-10 gravity column (GE Healthcare). The desalting buffer exchange was performed prior to diluting the protein to the final assay concentration of 3.5 μM. The concentration of proMMP13(1-268) (SEQ ID NO:7) was estimated spectrophotometrically based on a calculated extinction coefficient of ε280=37000 M^−1 cm^−1, a calculated molecular weight of 30.8 kDa, and calculated pI of 5.33. ThermoFluor® reference conditions were defined as follows: 100 μg/mL proMMP13(1-268) (SEQ ID NO:7), 25 μM 1,8-ANS, pH 7.0 Buffer (50 mM HEPES pH 7.0, 100 mM NaCl, 0.001% Tween-20, 2.5 mM MgCl2, 300 μM CaCl2). The thermodynamic parameters for proMMP13(1-268) (SEQ ID NO:7) are as follows: Tm (° C.)=67 (+/−0.1), ΔUH(Tm)) (cal mol^−1)=107000(+/−5000), ΔUSTm (cal mol^−1 K^−1)=318, ΔUCp (cal mol^−1 K^−1)=2600.

[4] = molecular target: T4, full-length proMMP9(1-707) activation by catalytic MMP3 (Homo sapiens, UniProt P14780, R574P); assay: proMMP9/MMP3 P126 Activation Assay; assay type: biochemical
T4 construct: made in house; host or cells: proMMP9: HEK293 (secreted); MMP3: E. coli
T4 sequence (P14780 20-707 R574P): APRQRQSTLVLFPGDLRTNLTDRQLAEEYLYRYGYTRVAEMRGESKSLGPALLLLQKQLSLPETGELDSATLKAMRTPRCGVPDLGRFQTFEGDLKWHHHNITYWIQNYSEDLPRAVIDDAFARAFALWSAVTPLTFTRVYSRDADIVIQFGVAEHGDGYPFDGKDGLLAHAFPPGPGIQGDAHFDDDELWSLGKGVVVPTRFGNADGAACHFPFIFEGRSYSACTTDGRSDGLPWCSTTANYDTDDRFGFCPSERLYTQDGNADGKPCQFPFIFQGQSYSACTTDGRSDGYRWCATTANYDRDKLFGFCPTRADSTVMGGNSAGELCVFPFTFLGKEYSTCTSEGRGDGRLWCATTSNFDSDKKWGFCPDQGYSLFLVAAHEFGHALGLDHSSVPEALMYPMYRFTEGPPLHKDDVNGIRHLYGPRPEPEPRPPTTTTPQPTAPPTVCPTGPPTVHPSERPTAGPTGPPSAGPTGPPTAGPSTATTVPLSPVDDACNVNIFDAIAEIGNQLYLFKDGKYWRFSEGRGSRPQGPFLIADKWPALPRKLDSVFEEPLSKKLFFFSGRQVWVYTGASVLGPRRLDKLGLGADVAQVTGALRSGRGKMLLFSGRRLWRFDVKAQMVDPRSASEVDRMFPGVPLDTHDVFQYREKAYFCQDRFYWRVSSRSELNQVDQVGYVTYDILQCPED
Procedure: proMMP9/MMP3 P126 Activation Assay
The reaction volume was 50 μL. […] Reactivity of residual MMP3 towards P-126 substrate was minimal under these conditions.

| Kd [1] [µM] | Kd [2] [µM] | Kd [3] [µM] | IC50 [4] [µM] | SMILES |
| --- | --- | --- | --- | --- |
| 0.43 | 0.2 | 2.7 | 0.49 | CC(C)Oc1ccc(C(N)=O)cc1Nc1nc2c(ccc3[nH]c(Cl)nc32)s1 [Example 25, 3-(7-Chloro-6H-imidazo[4′,5′:3,4]benzo[2,1-d]thiazol-2-ylamino)-4-isopropoxy-benzamide.HCl] |
| 0.85 | 0.7 | 6.1 | 0.71 | CC(C)Oc1ccc(C(N)=O)cc1Nc1nc2c(ccc3nc(C(=O)N4CCN(C)CC4)[nH]c32)s1 [Example 26, 4-Isopropoxy-3-[7-(4-methyl-piperazine-1-carbonyl)-8H imidazo[4′,5′:3,4]benzo[2,1-d]thiazol-2-ylamino]-benzamide.HCl] |
| 0.13 | 0.039 | 0.53 | 0.058 | Cc1nc2c3nc(Nc4cc(C(N)=O)ccc4OC(C)C)sc3ccc2n1C [Example 27, 3-(6,7-Dimethyl-6H-imidazo[4′,5′:3,4]benzo[2,1-d]thiazol-2-ylamino)-4-isopropoxy-benzamide.HCl] |
| 0.88 | 2.2 | 3.5 | 0.18 | CC(C)Oc1ccc(S(N)(=O)=O)cc1Nc1nc2c(ccc3c2ncn3C)s1 [Example 28, 4-Isopropoxy-3-(6-methyl-6H-imidazo[4′,5′:3,4]benzo[2,1-d]thiazol-2-ylamino)-benzenesulfonamide.HCl] |
| 0.8 | 0.63 | 1.4 | 0.55 | CC(C)Oc1ccc(C(N)=O)cc1Nc1nc2c(ccc3[nH]cnc32)s1 [Example 29, 3-(6H-Imidazo[4′,5′:3,4]-benzo[2,1-d]thiazol-2-ylamino)-4-isopropoxy-benzamide.HCl] |
| 0.93 | 0.82 | 2.3 | 0.82 | CC(C)Oc1ccc(C(N)=O)cc1Nc1nc2c(ccc3[nH]c(N4CCN(C)CC4)nc32)s1 [Example 31, 4-Isopropoxy-3-[7-(4-methyl-piperazin-1-yl)-6H-imidazo[4′,5′:3,4]benzo[2,1-d]thiazol-2-ylamino]-benzamide.HCl] |
| 3.7 | 0.54 | 9.2 | 0.35 | CC(C)Oc1ccccc1Nc1nc2c(ccc3c2ncn3C)s1 [Example 32, (2-Isopropoxy-phenyl)-(6-methyl-6H-imidazo[4′,5′:3,4]benzo[2,1-d]thiazol-2-yl)-amine.HCl] |
| 0.12 | 0.14 | 4 | 0.11 | CCn1c(C)nc2c3nc(Nc4cc(C(N)=O)ccc4OC(C)C)sc3ccc21 [Example 34, 3-(6-Ethyl-7-methyl-6H-imidazo[4′,5′:3,4]benzo[2,1-d]thiazol-2-ylamino)-4-isopropoxy-benzamide.HCl] |
| 0.055 | 0.15 | 0.43 | 0.053 | CCn1c(C)nc2ccc3sc(Nc4cc(C(N)=O)ccc4OC(C)C)nc3c21 [Example 35, 3-(8-Ethyl-7-methyl-8H-imidazo[4′,5′:3,4]benzo[2,1-d]thiazol-2-ylamino)-4-isopropoxy-benzamide.HCl] |
| 0.17 | 0.71 | 2 | 0.3 | CCCn1c(C)nc2c3nc(Nc4cc(C(N)=O)ccc4OC(C)C)sc3ccc21 [Example 36, 4-Isopropoxy-3-(7-methyl-6-propyl-6H-imidazo[4′,5′:3,4]benzo[2,1-d]thiazol-2-ylamino)-benzamide.HCl] |
| 2.3 | 0.36 | 5.9 | 0.31 | CCOc1ccccc1Nc1nc2c(ccc3c2ncn3C)s1 [Example 37, (2-Ethoxy-phenyl)-(6-methyl-6H-imidazo[4′,5′:3,4]benzo[2,1-d]thiazol-2-yl)-amine.HCl] |
| 1 | 0.95 | 1.4 | 1.5 | Cc1cc2ccc3sc(Nc4cc(C(N)=O)ccc4OC(C)C)nc3c2o1 [Example 38, 4-Isopropoxy-3-(7-methyl-8-oxa-3-thia-1-aza-as-indacen-2-ylamino)-benzamide.HCl] |
| 0.44 | 0.052 | 1.5 | 0.094 | COc1ccc(C(N)=O)cc1Nc1nc2c(ccc3c2ncn3C)s1 [Example 39, 4-Methoxy-3-(6-methyl-6H-imidazo[4′,5′:3,4]benzo[2,1-d]thiazol-2-ylamino)-benzamide.HCl] |
| 0.83 | 0.1 | 1.6 | 0.17 | COc1ccc(Cl)cc1Nc1nc2c(ccc3c2ncn3C)s1 [Example 40, (5-Chloro-2-methoxy-phenyl)-(6-methyl-6H-imidazo[4′,5′:3,4]benzo[2,1-d]thiazol-2-yl)-amine.HCl] |
| 4.2 | 0.9 | 7.7 | 0.72 | COc1ccc(C)cc1Nc1nc2c(ccc3c2ncn3C)s1 [Example 41, (2-Methoxy-5-methyl-phenyl)-(6-methyl-6H-imidazo[4′,5′:3,4]benzo[2,1-d]thiazol-2-yl)-amine.HCl] |
| 1.9 | 0.37 | 3.4 | 0.35 | COc1ccc(OC)c(Nc2nc3c(ccc4c3ncn4C)s2)c1 [Example 42, (2,5-Dimethoxy-phenyl)-(6-methyl-6H-imidazo[4′,5′:3,4]-benzo[2,1-d]thiazol-2-yl)-amine.HCl] |
| 17 | 2.8 | > 95 | 2.5 | Cn1cnc2c3nc(Nc4ccccc4OCC(F)(F)F)sc3ccc21 [Example 43, (6-Methyl-6H-imidazo[4′,5′:3,4]-benzo[2,1-d]thiazol-2-yl)-[2-(2,2,2-trifluoro-ethoxy)-phenyl]-amine.HCl] |
| 25 | 6.2 | 9.9 | 3.8 | COc1c(Nc2nc3c(ccc4c3ncn4C)s2)cc(C(N)=O)c(F)c1F [Example 44, 2,3-Difluoro-4-methoxy-5-(6-methyl-6H-imidazo[4′,5′:3,4]-benzo[2,1-d]thiazol-2-ylamino)-benzamide.HCl] |
